# According to ChEMBL document CHEMBL1152178, “Calmodulin inhibitory activity of the malbrancheamides and various analogs” (Bioorg Med Chem Lett, 2008):
# Columns and labels:
# [1] = Inhibition of bovine brain PDE1; set-up: species or system Bos taurus
# Bos taurus = organism: Bos taurus; experiment: Ratio of IC50 of chlorpromazine to IC50 of compound for bovine brain PDE1
IC50 [1] [µM],Ratio IC50 (Bos taurus),Compound
60.3,0.2,CC1(C)c2[nH]c3ccc(Cl)cc3c2C[C@@]23CN4CCC[C@]4(C[C@@H]12)C(=O)N3
81.2,0.1,CC1(C)c2[nH]c3ccc(Cl)c(Cl)c3c2C[C@@]23CN4CCC[C@]4(C[C@H]12)C(=O)N3
33.9,0.5,CC1(C)c2[nH]c3cc(Cl)c(Cl)cc3c2C[C@@]23NC(=O)[C@]4(CCCN4C2=O)C[C@H]13
45.4,0.2,CC1(C)c2[nH]c3ccc(Cl)c(Cl)c3c2C[C@@]23NC(=O)[C@]4(CCCN4C2=O)C[C@H]13
62.3,0.2,CC1(C)c2[nH]c3ccc(Cl)cc3c2C[C@@]23NC(=O)[C@]4(CCCN4C2=O)C[C@H]13
61.8,0.2,CC1(C)c2[nH]c3cc(Cl)ccc3c2C[C@@]23NC(=O)[C@]4(CCCN4C2=O)C[C@@H]13
18.6,0.9,CC1(C)c2[nH]c3cc(Cl)c(Cl)cc3c2C[C@@]23NC(=O)[C@]4(CCCN4C2=O)C[C@@H]13
12,0.9,CC1(C)c2[nH]c3cc(Cl)c(Cl)cc3c2C[C@@]23NC[C@]4(CCCN4C2=O)C[C@H]13
27.5,0.4,CC1(C)c2[nH]c3ccc(Cl)c(Cl)c3c2C[C@@]23NC[C@]4(CCCN4C2=O)C[C@H]13
42.8,0.3,CC1(C)c2[nH]c3cc(Cl)ccc3c2C[C@@]23NC(=O)[C@]4(CCCN4C2=O)C[C@H]13
35.7,0.5,CC1(C)c2[nH]c3ccccc3c2C[C@@]23CN4CCC[C@]4(C[C@@H]12)C(=O)N3
23.6,0.7,CC1(C)c2[nH]c3ccccc3c2C[C@@]23NC(=O)[C@]4(CCCN4C2=O)C[C@H]13
151,0.1,CC1(C)c2[nH]c3ccccc3c2C[C@@]23NC(=O)[C@]4(CCCN4C2=O)C[C@@H]13
31.5,0.4,CC1(C)c2[nH]c3ccc(Cl)cc3c2C[C@@]23NC(=O)[C@]4(CCCN4C2=O)C[C@@H]13

Compound,IC50 [1] [µM],Ratio IC50 (Bos taurus)
CC1(C)c2[nH]c3cc(Cl)ccc3c2C[C@@]23CN4CCC[C@]4(C[C@@H]12)C(=O)N3 [MALBRANCHEAMIDE B],183,0.1
"CC1(C)c2[nH]c3cc(Cl)ccc3c2CC23CN4CCCC4(CC21)C(=O)N3 (racemic) [D,L-MALBRANCHEAMIDE B]",42.9,0.3
CC1(C)c2[nH]c3cc(Cl)c(Cl)cc3c2C[C@@]23CN4CCC[C@]4(C[C@@H]12)C(=O)N3,19.3,0.9
CC1(C)c2[nH]c3cc(Cl)c(Cl)cc3c2CC23CN4CCCC4(CC21)C(=O)N3 (racemic),16,1.1
CC1(C)c2[nH]c3cc(Cl)c(Cl)cc3c2C[C@@]23CN4CCC[C@]4(C[C@H]12)C(=O)N3,134,0.1
